We go through two compounds from ChEMBL document CHEMBL5365482, “Rational Design of Sulfonyl-γ-AApeptides as Highly Potent HIV-1 Fusion Inhibitors with Broad-Spectrum Activity” (J Med Chem, 2023).

SMILES strings stand for the structures.

In data set [1] the test system is Human immunodeficiency virus 1. The data set can be described thus: Antiviral activity against HIV1 X4 […] MN/H9 (84US_MNp) clinical isolate infected in human MT2 cells assessed as inhibition of viral growth incubated for 30 mins by ELISA assay. The format is functional, organism-based. The conditions noted are these: Human immunodeficiency virus 1, X4 […] MN/H9 (84US_MNp), MT2, 0.5 h. Background: ELISA stands for enzyme-linked immunosorbent assay.

A short description of data set [2]: Apparent permeability of the compound across gastrointestinal tract in PBS buffer at pH 5 at 50 uM by PAMPA analysis. The class given is ADME, tissue-based. The conditions noted are these: PAMPA, pH 5. For orientation: PAMPA measures passive passage across an artificial lipid membrane.
Data set [3] is described as follows: Cytotoxicity against human MT2 cells assessed as inhibition of cell growth measured after 3 days by CCK8 assay. The conditions noted are these: time 3 day. The class given is toxicity, cell-based. For orientation: Tetrazolium assays rely on reduction of a dye to a coloured formazan, in cell work by metabolically active cells.
In data set [4] the test system is Human immunodeficiency virus 1. The data set can be described thus: Antiviral activity against HIV1 Q259env.w6 clinical isolate infected in human TZM-bl cells assessed as inhibition of viral growth incubated for 48 hrs by luciferase based analysis. The format is functional, organism-based. The conditions noted are these: Human immunodeficiency virus 1, Q259env.w6, TZM-bl.

Data set [5] relates to Human immunodeficiency virus 1. The data set can be described thus: Antiviral activity against HIV1 R5 […] US4/GS 007 (91US_4) clinical isolate infected in human CEMx174 5.25M7 cells assessed as inhibition of viral growth incubated for 30 mins by ELISA assay. The format is functional, organism-based. The conditions noted are these: Human immunodeficiency virus 1, R5 […] US4/GS 007 (91US_4), CEMx174 5.25M7, 0.5 h.

Data set [6] relates to Human immunodeficiency virus 1. As to the kind of experiment: Antiviral activity against HIV1 CRF02_AG Clone 33 clinical isolate infected in human TZM-bl cells assessed as inhibition of viral growth incubated for 48 hrs by luciferase based analysis. The conditions noted are these: Human immunodeficiency virus 1, CRF02_AG Clone 33, TZM-bl. The format is functional, organism-based.

In data set [7] the test system is Human immunodeficiency virus 1. As to the kind of experiment: Antiviral activity against HIV1 IIIB infected in human MT2 cells assessed as inhibition of viral growth incubated for 30 mins by ELISA assay. The class given is functional, organism-based. The note with it: Human immunodeficiency virus 1, IIIB, MT2, 0.5 h.
Data set [8] can be described thus: Apparent permeability of the compound across gastrointestinal tract in PBS buffer at pH 7.4 at 50 uM by PAMPA analysis. The format is ADME, tissue-based.
Data set [9] can be described thus: Apparent permeability of the compound across blood brain barrier in PBS buffer at pH 7.4 at 15 uM by PAMPA analysis. The class given is ADME, tissue-based.
Data set [10] deals with Human immunodeficiency virus 1. The data set can be described thus: Antiviral activity against HIV1 QA013.701.ENV.M12 clinical isolate infected in human TZM-bl cells assessed as inhibition of viral growth incubated for 48 hrs by luciferase based analysis. The class given is functional, organism-based. The note with it: Human immunodeficiency virus 1, QA013.701.ENV.M12, TZM-bl.

A short description of data set [11]: Selectivity index, ratio of CC50 for human MT2 cells to IC50 for HIV1 IIIB infected in human MT2 cells. The conditions noted are these: read-out: Ratio CC50/IC50. The class given is toxicity, cell-based.
Data set [12] has as its system Human immunodeficiency virus 1. As to the kind of experiment: Antiviral activity against HIV1 QD435.100MENV.E1 clinical isolate infected in human TZM-bl cells assessed as inhibition of viral growth incubated for 48 hrs by luciferase based analysis. The format is functional, organism-based. The note with it: Human immunodeficiency virus 1, QD435.100MENV.E1, TZM-bl.

Data set [13] relates to Human immunodeficiency virus 1. As to the kind of experiment: Antiviral activity against HIV1 CRF02_AG Clone 278 clinical isolate infected in human TZM-bl cells assessed as inhibition of viral growth incubated for 48 hrs by luciferase based analysis. The format is functional, organism-based. The conditions noted are these: Human immunodeficiency virus 1, CRF02_AG Clone 278, TZM-bl.

Data set [14] can be described thus: Apparent permeability of the compound across gastrointestinal tract in PBS buffer at pH 6.2 at 50 uM by PAMPA analysis. The class given is ADME, tissue-based. The conditions noted are these: PAMPA, pH 6.2.
The target of data set [15] is T1, Envelope glycoprotein gp160 (Human immunodeficiency virus 1, UniProt Q72502). As to the kind of experiment: Binding affinity to HIV1 GP41 using GP41 NHR derived N36 peptide assessed as binding constant in presence of C34 by fluorescence polarization assay.
Data set [16] concerns the target T1, Envelope glycoprotein gp160. The data set can be described thus: Binding affinity to HIV1 GP41 using GP41 NHR derived N36 peptide assessed as binding constant by fluorescence polarization assay.
Data set [17] can be described thus: Apparent permeability of the compound across blood brain barrier in PBS buffer at pH 7.4 at 25 uM by PAMPA analysis. The class given is ADME, tissue-based.

T1 sequence (Q72502 whole entry): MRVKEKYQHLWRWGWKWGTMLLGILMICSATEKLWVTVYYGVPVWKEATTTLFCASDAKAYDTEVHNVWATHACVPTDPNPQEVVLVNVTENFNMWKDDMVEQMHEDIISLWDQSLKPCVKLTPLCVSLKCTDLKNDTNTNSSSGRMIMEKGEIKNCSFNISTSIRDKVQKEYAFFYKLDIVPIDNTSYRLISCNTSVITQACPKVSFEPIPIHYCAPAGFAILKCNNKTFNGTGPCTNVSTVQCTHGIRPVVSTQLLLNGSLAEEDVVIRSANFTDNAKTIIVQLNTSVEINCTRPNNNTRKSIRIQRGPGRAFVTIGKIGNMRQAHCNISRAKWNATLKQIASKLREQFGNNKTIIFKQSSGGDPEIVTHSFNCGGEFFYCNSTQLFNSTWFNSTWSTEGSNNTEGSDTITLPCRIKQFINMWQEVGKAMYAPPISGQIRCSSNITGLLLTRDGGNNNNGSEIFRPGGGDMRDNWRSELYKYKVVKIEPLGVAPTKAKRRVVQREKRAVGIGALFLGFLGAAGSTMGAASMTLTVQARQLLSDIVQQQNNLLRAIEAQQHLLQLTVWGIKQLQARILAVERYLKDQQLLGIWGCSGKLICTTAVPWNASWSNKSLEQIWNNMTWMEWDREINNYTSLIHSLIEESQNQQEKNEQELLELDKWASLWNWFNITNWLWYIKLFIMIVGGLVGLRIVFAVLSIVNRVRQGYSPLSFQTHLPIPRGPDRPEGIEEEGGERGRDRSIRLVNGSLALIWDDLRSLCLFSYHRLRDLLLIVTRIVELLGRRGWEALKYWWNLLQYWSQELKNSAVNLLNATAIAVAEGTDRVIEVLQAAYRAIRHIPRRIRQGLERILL

As for `CCCCCCCCCCCCCCCCCC(=O)NCCCC[C@H](NC(=O)CN(C[C@H](CC(C)C)NC(=O)CN(C[C@H](CCC(=O)O)NC(=O)CN(C[C@@H](NC(=O)CN(C[C@H](CCCCN)NC(=O)CN(C[C@H](Cc1ccc(O)cc1)NC(=O)CN(C[C@H](CCC(=O)O)NC(=O)CN(C[C@@H](NC(=O)CN(C[C@H](CCCCN)NC(=O)CN(C[C@H](Cc1c[nH]c2ccccc12)NC(=O)CN(C[C@H](CCC(=O)O)NC(=O)CN(C[C@H](Cc1c[nH]c2ccccc12)NC(=O)CN(C[C@H](CCSC)NC(C)=O)S(=O)(=O)c1ccc(OC)cc1)S(=O)(=O)CC(C)C)S(=O)(=O)c1ccc(C(=O)O)cc1)S(=O)(=O)CC(C)C)S(=O)(=O)CCN)[C@H](C)CC)S(=O)(=O)CC(C)C)S(=O)(=O)c1ccc(C(=O)O)cc1)S(=O)(=O)CC(C)C)S(=O)(=O)CCN)[C@H](C)CC)S(=O)(=O)CC(C)C)S(=O)(=O)c1ccc(C(=O)O)cc1)S(=O)(=O)CC(C)C)C(N)=O`, the IC50 – broadly, the point on the concentration scale where inhibition reaches its midpoint – came out at 940 nM in data set [1]; 84.4 nM in data set [4]; 88.8 nM in [5]; 64.7 nM in [6]; 180 nM in data set [7]; 61 nM in data set [10]. Also, the IC50 in data set [12] was determined as 85.3 nM; in data set [13], 60.4 nM. In addition, the Papp (in general, a coefficient for how fast a substance crosses the barrier) at 50 µM in [2] turned out to be 610 ×10⁻⁶ cm/s; in [8] it was 520 ×10⁻⁶ cm/s; in [14] it was 522 ×10⁻⁶ cm/s. Further, in [3], the CC50 – broadly, the concentration giving 50% cytotoxicity – at 72 h turned out to be 19300 nM. Further, in data set [9], the Papp at 15 µM was determined as 256 ×10⁻⁶ cm/s. For the same compound, in [11], the selectivity ratio was 106. The Kd (as a rule, the concentration at which binding is half-saturated) in data set [15] is above 46000 nM; in data set [16], 670 nM.
For `CCCCCCCCCCCCCCCCCC(=O)NCCCC[C@H](NC(=O)CN(C[C@H](CC(C)C)NC(=O)CN(C[C@H](CCC(=O)O)NC(=O)CN(C[C@@H](NC(=O)CN(C[C@H](CCCCN)NC(=O)CN(C[C@H](Cc1ccc(O)cc1)NC(=O)CN(C[C@H](CCC(=O)O)NC(=O)CN(C[C@@H](NC(=O)CN(C[C@H](CCCCN)NC(=O)CN(C[C@H](Cc1c[nH]c2ccccc12)NC(=O)CN(C[C@H](CCC(=O)O)NC(=O)CN(C[C@H](Cc1c[nH]c2ccccc12)NC(=O)CN(C[C@H](CCSC)NC(C)=O)S(=O)(=O)CC(C)C)S(=O)(=O)CC(C)C)S(=O)(=O)c1ccc(C(=O)O)cc1)S(=O)(=O)CC(C)C)S(=O)(=O)CCN)[C@H](C)CC)S(=O)(=O)CC(C)C)S(=O)(=O)c1ccc(C(=O)O)cc1)S(=O)(=O)CC(C)C)S(=O)(=O)CCN)[C@H](C)CC)S(=O)(=O)CC(C)C)S(=O)(=O)c1ccc(C(=O)O)cc1)S(=O)(=O)CC(C)C)C(N)=O`, the IC50 is 81.3 nM in [1]; 154 nM in data set [4]; 87.8 nM in data set [5]; 124 nM in data set [6]; 980 nM in data set [7]; 46.7 nM in data set [10]. Further, the IC50 in [12] worked out at 84.9 nM; in data set [13] it was 89 nM. The Papp at 50 µM is 602 ×10⁻⁶ cm/s in [2], 390 ×10⁻⁶ cm/s in data set [8] and 617 ×10⁻⁶ cm/s in data set [14]. Besides, the CC50 at 72 h in data set [3] is above 40000 nM. Moreover, in data set [17], the apparent permeability (Papp) at 25 µM amounted to 234 ×10⁻⁶ cm/s. Moreover, the selectivity ratio in [11] is above 41.
